One test deals with T1, PPARγ (Mus musculus, UniProt P37238).
T1 construct: from tissue; host or cells: purified small bowel T cells of HFD or HFD 5-ASA-fed mice (nuclear extracts)
Description: PPARγ activity assay in small bowel T cell nuclear extracts. The note with it: purified small bowel T cells, mice fed HFD 5-ASA vs control HFD. It counts as in vivo. The text has this: We measured PPARγ functional activity in T cell nuclear extracts using a PPARγ transcription factor binding assay following vendor's instructions (ThermoScientific and Cayman Chemical Company). This ELISA-based assay is precoated with dsDNA containing the peroxisome proliferator response element (PPRE). PPARγ in the isolated nuclear extracts bind to PPRE. As per vendor's recommendations, this assay is specific to PPARγ and not to other PPARs (i.e., α or δ).

The test system of test [1] is small bowel dendritic cells. The test can be described thus: DC-T cell co-culture, 5-ASA pre-treated small bowel dendritic cells with OT-II T cells. It counts as cell-based, mice. To be noted: DCs pre-treated with 0.1 or 1.0 mM 5-ASA 24 hours, OVA323-339 peptide, 48 hours. Here is the method:
To measure the effect of IFNγ on tight-junction gene expression, we treated MODE-K cells with recombinant mouse IFNγ (Biolegend). We purified bulk dendritic cells and T cells from murine small bowels and spleens using a negative selection DC or T cell isolation kit (Stem Cell Technologies). We plated T cells at 5×10^5 cells/well with plate-bound anti-CD3/CD28 (1 μg/ml, Biolegend). […] We collected supernatants for cytokine measurements after 72 hour incubation. […] After 24 hours, we washed the cells with PBS and co-cultured them (1×10^4 cells/well) with OVA323-339 peptide and OT-II splenic or small bowel T cells (5×10^4 cells/well) for 48 hours. Supernatants were collected at 48 hours for cytokine measurement.

T1 sequence (P37238 whole entry): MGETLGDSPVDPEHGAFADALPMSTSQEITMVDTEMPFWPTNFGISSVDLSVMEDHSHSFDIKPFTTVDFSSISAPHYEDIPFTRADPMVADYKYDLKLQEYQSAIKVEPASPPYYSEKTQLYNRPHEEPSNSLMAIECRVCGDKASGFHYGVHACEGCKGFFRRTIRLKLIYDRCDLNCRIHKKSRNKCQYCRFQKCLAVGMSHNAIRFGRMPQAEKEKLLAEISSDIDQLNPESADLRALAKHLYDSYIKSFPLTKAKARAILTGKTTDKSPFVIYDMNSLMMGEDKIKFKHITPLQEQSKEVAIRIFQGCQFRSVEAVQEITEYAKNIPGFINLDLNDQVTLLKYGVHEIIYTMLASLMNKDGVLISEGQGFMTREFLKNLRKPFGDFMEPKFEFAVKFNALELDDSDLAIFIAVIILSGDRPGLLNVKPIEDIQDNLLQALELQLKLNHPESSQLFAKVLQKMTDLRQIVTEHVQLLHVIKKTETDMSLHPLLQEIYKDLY

Regarding `Nc1ccc(O)c(C(=O)O)c1` [5-ASA, 5-aminosalicylic acid], on PPARγ, the PPARγ functional activity entry is given as “increased”. The “IFNγ levels from OT-II CD4+ T cells” value in test [1] is given as “reduced”.

(Values after patent publication US20180193361A1, “GUT ANTI-INFLAMMATORY AGENTS FOR REGULATION OF HIGH BLOOD GLUCOSE LEVELS” (UNIVERSITY HEALTH NETWORK, priority 2015, published 2018).)
